# From patent publication US20070117808A1, “Substituted Cycloalkylpyrrolones As Allosteric Modulators Of Glucokinase” (priority 2005, published 2007)
# “And” between values parts separate entries of the source, which are not always exact repeats. Identical values can stand only once.
# Assays:
# [1] = target: T1, human liver Glucokinase (GK) (Homo sapiens, UniProt P35557); assay: Glucokinase enzyme assay, liver GK; assay type: biochemical; conditions: for activation at 50 µM: percentage increase in GK activity above vehicle control, compound 50 μM, 12 mM glucose; for EC50: concentration that produces 50% activation above the vehicle control; for EC100%: concentration that produces 100% activation above the vehicle control
# T1 construct: (His)6; made in house; host or cells: Escherichia coli
# T1 sequence (P35557 1-466 isoform P35557-2): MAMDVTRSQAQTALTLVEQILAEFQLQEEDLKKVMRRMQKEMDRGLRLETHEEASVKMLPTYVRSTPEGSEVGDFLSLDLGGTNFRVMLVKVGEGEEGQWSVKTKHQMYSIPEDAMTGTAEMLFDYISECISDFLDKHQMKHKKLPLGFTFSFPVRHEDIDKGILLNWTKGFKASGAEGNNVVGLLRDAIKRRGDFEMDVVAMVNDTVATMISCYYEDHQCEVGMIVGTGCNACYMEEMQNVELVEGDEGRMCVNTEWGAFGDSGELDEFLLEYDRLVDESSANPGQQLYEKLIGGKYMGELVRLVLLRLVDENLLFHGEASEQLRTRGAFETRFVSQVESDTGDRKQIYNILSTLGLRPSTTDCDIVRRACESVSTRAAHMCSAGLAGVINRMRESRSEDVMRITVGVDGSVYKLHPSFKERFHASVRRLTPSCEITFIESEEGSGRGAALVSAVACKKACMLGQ
# From the text: (§1) An enzymatic Glucokinase (GK) assay using purified recombinant human liver/pancreas enzyme was used to evaluate the effects of potential small molecule modulators.
# (§2) In this assay, GK catalyzes glucose phosphorylation in the presence of ATP. The product of this reaction, glucose-6-phosphate, was then oxidized by an excess of glucose-6-phosphate dehydrogenase to produce gluconate-6-phosphate with concomitant reduction of nicotinamide adenine dinucleotide (NAD). […] Human GK (Liver/Pancreas) was expressed in Escherichia coli as a (His) 6-tagged fusion protein and was purified by metal chelate affinity chromatography. The assay was performed in a final incubation volume of 80 μl in a 96-well clear low UV absorption plates. The incubation mixture consisted of 25 mM HEPES, 2 mM MgSO4, 1 mM dithiothreotol (DTT), 1 mg/mL bovine serum albumin (BSA), 1 mM ATP, 1 mM NAD, and 12 mM glucose, 10 units per mL glucose-6-phosphate dehydrogenase, and +/−300 ng per mL GK. For determination of the affinity (Km) and Vmax, different concentrations of glucose ranging from 0.5 mM to 40 mM were used in the assay; see Grimsby, J., Sarabu, R.; Grippo, J. F.; et. al. Science 2003, 301, 370-373. Production of reduced NAD (Nicotinamide Adenine Dinucleotide) was measured as changes in absorption at 340 nm in 96-well plate reader (Envision model # 2101 Multilabel Plate reader). % Activation @ 50 μM was calculated as the percentage increase in GK activity above the vehicle control with the effective concentration of the compound being 50 μM. EC50% (μM) was calculated as the effective concentration of the compound that produces 50% activation above the vehicle control, and EC100% (μM) was calculated as the effective concentration of the compound that produces 100% activation above the vehicle control.
# [2] = target: T2, human pancreas Glucokinase (GK) (Homo sapiens, UniProt P35557); assay: Glucokinase enzyme assay, pancreas GK; assay type: biochemical; conditions: for activation at 50 µM: percentage increase in GK activity above vehicle control, compound 50 μM, 12 mM glucose; for EC50: concentration that produces 50% activation above the vehicle control; for EC100%: concentration that produces 100% activation above the vehicle control
# T2 construct: (His)6; made in house; host or cells: Escherichia coli
# T2 sequence (P35557 1-465): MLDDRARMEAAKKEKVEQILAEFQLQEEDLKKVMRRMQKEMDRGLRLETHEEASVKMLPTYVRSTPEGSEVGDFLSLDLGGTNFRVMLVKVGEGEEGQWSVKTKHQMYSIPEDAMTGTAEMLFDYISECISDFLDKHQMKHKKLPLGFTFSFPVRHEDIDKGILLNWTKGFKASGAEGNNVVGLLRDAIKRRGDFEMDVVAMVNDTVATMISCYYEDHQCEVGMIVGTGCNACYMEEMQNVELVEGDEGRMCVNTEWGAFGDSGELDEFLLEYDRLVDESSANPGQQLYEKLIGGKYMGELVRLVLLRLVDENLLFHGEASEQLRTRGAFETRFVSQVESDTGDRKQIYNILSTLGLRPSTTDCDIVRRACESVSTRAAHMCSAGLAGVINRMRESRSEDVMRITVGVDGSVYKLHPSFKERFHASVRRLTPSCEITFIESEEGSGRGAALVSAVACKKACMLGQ
# From the text: as §1, §2
SMILES,activation at 50 µM [1] [%],activation at 50 µM [2] [%],EC50 [1],EC100% [1],EC50 [2],EC100% [2]
"COc1ccc([C@H](C)N2C(=O)C3=C(CCCC3)[C@@H]2SCC(=O)Nc2ccccn2)cc1 (single isomer, unassigned) [Compound 6]",21,79,,,,
"COc1ccc([C@H](C)N2C(=O)C3=C(CCCC3)[C@H]2SCC(=O)Nc2ccccn2)cc1 (single isomer, unassigned) [Compound 7]",0,35,,,,
COC(=O)c1ccc(NC(=O)CSC2C3=C(CCCC3)C(=O)N2Cc2ccc(OC)cc2)nc1 (stereo not drawn) [Compound 2],,,160 nM and 210 nM,0.52 µM and 0.98 µM,350 nM,1.32 µM
"COc1ccc(CN2C(=O)C3=C(CCCC3)C2SCC(=O)Nc2ccccn2)cc1 (stereo not drawn) [Compound 3, 2-[2-(4-Methoxy-benzyl)-3-oxo-2,3,4,5,6,7-hexahydro-1H-isoindol-1-ylsulfanyl]-N-pyridin-2-yl-acetamide]",250,,390 nM,1 µM,,
"COc1ccc(CN2C(=O)C3=C(CCCC3)C2OCC(=O)Nc2ccccn2)cc1 (stereo not drawn) [Compound 4, 2-[2-(4-Methoxy-benzyl)-3-oxo-2,3,4,5,6,7-hexahydro-1H-isoindol-1-yloxy]-N-pyridin-2-yl-acetamide]",114,,7780 nM,31.4 µM,,
COC(=O)c1ccc(NC(=O)CSC2C3=C(CCCC3)C(=O)N2Cc2ccc(OC(C)C)cc2)nc1 (stereo not drawn) [Compound 5],,,3100 nM and 1050 nM,5.54 µM,,
"COc1ccc(CN2C(=O)C3=C(CCCC3)C2SCC(=O)Nc2ccc(C(=O)O)cn2)cc1 (stereo not drawn) [Compound 8, 6-{2-[2-(4-Methoxy-benzyl)-3-oxo-2,3,4,5,6,7-hexahydro-1H-isoindol-1-ylsulfanyl]-acetylamino}-nicotinic acid]",,,900 nM,2.5 µM,1300 nM and 740 nM and 630 nM,
"COC(=O)c1ccc(NC(=O)CSC2C3=C(CCCC3)C(=O)N2Cc2ccc(OC)c(OC)c2)nc1 (stereo not drawn) [Compound 9, 6-{2-[2-(3,4-Dimethoxy-benzyl)-3-oxo-2,3,4,5,6,7-hexahydro-1H-isoindol-1-ylsulfanyl]-acetylamino}-nicotinic acid methyl ester]",206,164,250 nM,1.43 µM,330 nM,2.2 µM
"COc1ccc(CN2C(=O)C3=C(CCCC3)C2SCC(=O)Nc2ccccn2)cc1OC (stereo not drawn) [Compound 10, 2-[2-(3,4-Dimethoxy-benzyl)-3-oxo-2,3,4,5,6,7-hexahydro-1H-isoindol-1-ylsulfanyl]-N-pyridin-2-yl-acetamide]",259,,390 nM,1.35 µM,450 nM,1.8 µM
"COc1ccc(CN2C(=O)C3=C(CCCC3)C2SCC(=O)Nc2ccc(C)cn2)cc1OC (stereo not drawn) [Compound 11, 2-[2-(3,4-Dimethoxy-benzyl)-3-oxo-2,3,4,5,6,7-hexahydro-1H-isoindol-1-ylsulfanyl]-N-(5-methyl-pyridin-2-yl)-acetamide]",202,168,550 nM,3.5 µM,800 nM,5.7 µM
"COc1ccc(CN2C(=O)C3=C(CCCC3)C2SCC(=O)Nc2nccs2)cc1OC (stereo not drawn) [Compound 12, 2-[2-(3,4-Dimethoxy-benzyl)-3-oxo-2,3,4,5,6,7-hexahydro-1H-isoindol-1-ylsulfanyl]-N-thiazol-2-yl-acetamide]",196,143,3100 nM,10.3 µM,4300 nM,17.1 µM
"COc1ccc(CN2C(=O)C3=C(CCCC3)C2SCC(=O)Nc2ccc(C(N)=O)cn2)cc1OC (stereo not drawn) [Compound 13, 6-{2-[2-(3,4-Dimethoxy-benzyl)-3-oxo-2,3,4,5,6,7-hexahydro-1H-isoindol-1-ylsulfanyl]-acetylamino}-nicotinamide]",,,,,210 nM,3.1 µM
"O=C(CSC1C2=C(CCCC2)C(=O)N1Cc1ccc([N+](=O)[O-])cc1)Nc1ccccn1 (stereo not drawn) [Compound 14, 2-[2-(4-Nitro-benzyl)-3-oxo-2,3,4,5,6,7-hexahydro-1H-isoindol-1-ylsulfanyl]-N-pyridin-2-yl-acetamide]",,79.4,,,10900 nM,>50 µM
"O=C(CSC1C2=C(CCCC2)C(=O)N1Cc1ccc(O)cc1)Nc1nccs1 (stereo not drawn) [Compound 15, 2-[2-(4-Hydroxy-benzyl)-3-oxo-2,3,4,5,6,7-hexahydro-1H-isoindol-1-ylsulfanyl]-N-thiazol-2-yl-acetamide]",,106,,,7300 nM,>50 µM
"COc1ccc(CN2C(=O)C3=C(CCC3)C2SCC(=O)Nc2ccccn2)cc1 (stereo not drawn) [Compound 16, 2-[2-(4-Methoxy-benzyl)-3-oxo-1,2,3,4,5,6-hexahydro-cyclopenta[c]pyrrol-1-ylsulfanyl]-N-pyridin-2-yl-acetamide]",,190,,,1100 nM,4.9 µM
"O=C(CSC1C2=C(CCCC2)C(=O)N1Cc1cccc2ccccc12)Nc1ccccn1 (stereo not drawn) [Compound 17, 2-(2-Naphthalen-1-ylmethyl-3-oxo-2,3,4,5,6,7-hexahydro-1H-isoindol-1-ylsulfanyl)-N-pyridin-2-yl-acetamide]",,125,,,710 nM,6.3 µM
"O=C(CSC1C2=C(CCCC2)C(=O)N1Cc1cccnc1)Nc1ccccn1 (stereo not drawn) [Compound 18, 2-(3-Oxo-2-pyridin-3-ylmethyl-2,3,4,5,6,7-hexahydro-1H-isoindol-1-ylsulfanyl)-N-pyridin-2-yl-acetamide]",,,,,3600 nM,22 µM
"O=C(CSC1C2=C(CCCC2)C(=O)N1Cc1ccncc1)Nc1ccccn1 (stereo not drawn) [Compound 19, 2-(3-Oxo-2-pyridin-4-ylmethyl-2,3,4,5,6,7-hexahydro-1H-isoindol-1-ylsulfanyl)-N-pyridin-2-yl-acetamide]",,218,,,1600 nM,5 µM
"NC(=O)c1ccc(NC(=O)CSC2C3=C(CCCC3)C(=O)N2Cc2ccc(F)cc2)nc1 (stereo not drawn) [Compound 20, 6-{2-[2-(4-Fluorobenzyl)-3-oxo-2,3,4,5,6,7-hexahydro-1H-isoindol-1-sulfanyl]-acetylamino}-nicotinamide]",,,,,450 nM and 270 nM,2 µM and 3.6 µM
"O=C(CSC1C2=C(CCCC2)C(=O)N1Cc1ccc(F)cc1)Nc1ccc(C(=O)O)cn1 (stereo not drawn) [Compound 21, 6-{2-[2-(4-Fluoro-benzyl)-3-oxo-2,3,4,5,6,7-hexahydro-1H-isoindol-1-ylsulfanyl]-acetylamino}-nicotinic acid]",,165,,,2200 nM,12 µM
